Source: patent publication US20170027902A1, “Use of a Composition Comprising a Flavonol, A Flavonoid, and a Fatty Acid in the Treatment of Oxidative Injuries Due to Mitochondrial Dysfunction” (priority 2014, published 2017)

Test system: primary cultures of mouse cortical neurons
Assay: Oxygen glucose deprivation (OGD), cell viability by MTT assay
Format: cell-based
Conditions: for reduction in OGD-induced neuronal cell death / loss of cell viability (increase in neuronal survival): pretreatment 24 hrs before OGD (3 hrs), MTT 24 hrs after OGD; for reduction of loss in cell viability after OGD: treatment 0.5 hrs before OGD, 1 μg/ml, viability 24 hrs later
Procedure: Embryonic day 16 timed pregnant CD1 out-bred mice were obtained from Charles River Laboratories (Charles River; QC, Canada). Primary cortical neuron cultures were prepared from cerebral cortices of wild type (WT) CD1 mouse embryos as described previously, with the following modifications. Pregnant CD1 females were heavily anaesthetized with isoflurane vapor (Benson Medical Industries, Inc., Markham, ON) before being euthanized by decapitation. The embryonic day 16 (E16) fetuses were immediately removed from the sacrificed pregnant females by cesarean section and placed in ice-cold Hank's Balanced Salt Solution (HBSS) (GIBCO; Invitrogen, Amarillo, Calif.). The meninges were removed from the brains and cortices were isolated under a dissecting microscope. The cortices from each embryo were placed in individual wells of a 24-well plate (Corning; Lowell, Mass.), containing 1 ml of ice-cold PBS (GIBCO; […] Under sterile conditions, the tissue was briefly minced, transferred to 15 ml sterile conical tubes (Corning; Lowell, Mass.) and centrifuged at 350×g for 3 min at room temperature. The dissecting solution was discarded and the cortical neurons were then dissociated trituration with fire-polished glass pipettes followed by incubating in 1 ml of 0.1% trypsin solution (0.1% w/v trypsin (Invitrogen, Amarillo, Calif.) in PBS with 1 mM Mg^2+ and 13 mM glucose) at 37° C. for 15 min. The trypsinization was inhibited by the addition of 0.5 ml of trypsin inhibitor solution that also contained DNase I (0.06% w/v trypsin inhibitor (Invitrogen; Amarillo, Calif.) and 0.01% DNase I (Invitrogen; […] The tubes were mixed briefly and the cells were centrifuged at 350×g for 3 min at room temperature. The trypsin and inhibitor solutions were discarded and each cell pellet was suspended in 1 ml of cortical neuron plating medium (Neurobasal medium (Invitrogen, Amarillo, Calif.) with 10% fetal bovine serum (GIBCO; Invitrogen; Amarillo, Calif.), 2% B27 supplement, 1 mM L-glutamine, and 1% Gentamycin (Invitrogen; […] Cortical neurons were plated in 96-well plates (Corning; Lowell, Mass.) that were pre-coated with poly-D-lysine (PDL; Sigma-Aldrich; Oakville, ON) according to the procedure described by the manufacturer. Briefly, plates were coated immediately before use with 100 μg/ml PDL for 5-10 min (50 μl/well), washed three times with tissue-culture grade water and left to dry for 2 h before cells were introduced. Cortical neurons were plated at a concentration of 1×10^6 cells/ml (100 µl/well) and medium was completely changed the day after plating to serum-free cortical neuron medium (Neurobasal medium with 2% B27 supplement, 5 mM HEPES, 0.5 mM L-glutamine, and 20 μg/ml Gentamycin), which was replaced every 3 days in culture. Cultures were maintained in a humidified, 37° C. incubator with 5% CO2. Experiments were performed on the eighth day in vitro (DIV10). […] Glucose-free medium (glucose-free Dulbecco's Modified Eagle Medium (GBSS, Invitrogen; Amarillo, Calif.) containing either epicatechin or quercetin or epicatechin plus quercetin at concentration of 1 μg/ml or 3 μg/ml or the corresponding DMSO control (0.02% DMSO) was placed in a 96-well plate and equilibrated to 0% oxygen in a modular chamber incubator (Billups-Rothenberg; Del Mar, Calif.). The chamber was flushed for 4 min at 20 l/min with an anoxic gas mixture (5% CO2 and Balanced […]; Dartmouth, NS) using a step-down pressure system and placed in a humidified, 37° C. incubator for 12 h. Cortical neuron medium was replaced with OGD-medium (anoxic and glucose-free) and the cultures were placed in the modular chamber incubator. The chamber was flushed again with anoxic gas and placed inside a humidified, 37° C. incubator for 3 hrs. […] Cell viability was assessed 24 hours after the completion of OGD. The culture media was exchanged for MEM media without phenol red containing 0.5 mg/ml MTT (3-[4,5-dimethylthiazol-2-yl]-2,5-diphenyltetrazolium bromide). […]

[1] = 1 μg/ml total flavonoid (~3 μM; E+Q 0.5 μg/ml each)
[2] = 3 μg/ml total flavonoid (~10 μM; E+Q 1.5 μg/ml each)

| Structure (SMILES) | reduction in OGD-induced neuronal cell death / loss of cell viability (increase in neuronal survival) [1] | reduction in OGD-induced neuronal cell death / loss of cell viability (increase in neuronal survival) (1 μg/ml total flavonoid (~3 μM; E+Q 0.5 μg/ml each), listed as Epicatechin) [%] | reduction in OGD-induced neuronal cell death / loss of cell viability (increase in neuronal survival) [2] | reduction of loss in cell viability after OGD | reduction in OGD-induced neuronal cell death / loss of cell viability (increase in neuronal survival) (3 μg/ml total flavonoid (~10 μM; E+Q 1.5 μg/ml each), listed as quercetin) [%] |
| --- | --- | --- | --- | --- | --- |
| Oc1cc(O)c2c(c1)O[C@H](c1ccc(O)c(O)c1)[C@H](O)C2 [E, (2R,3R)-2-(3,4-dihydroxyphenyl)-3,4-dihydro-2H-chromene-3,5,7-triol] | modestly reduced the loss in cell viability | 30 | protected | did not reduce the loss in cell viability |  |
| O=c1c(O)c(-c2ccc(O)c(O)c2)oc2cc(O)cc(O)c12 [Q] | failed to protect |  | modestly reduced the loss in cell viability | did not reduce the loss in cell viability | 30 |
